Experimental data published in US5925668A, “Thioctic metabolites and methods of use thereof” (priority 1998, dated 1999).
Blank lines part the entries; values can stand above or below the molecule they belong to.

Legend:
[1] = Plasma pharmacokinetics and metabolism of lipoic acid after oral administration of 1 gram R-lipoic acid to a healthy volunteer (HPLC/ECD); assay type: in vivo, human
Procedure: The HPLC system consisted of a pump (thermo separation products, Spectra SERLES P100,Breda, the Netherlands), an auto-injector (Gilson, Meyvis, model 232 XL, Bergen op Zoom, the Netherlands) with a […] sample loop and a dilutor (Gilson, Meyvis, model 401 C, Bergen op Zoom, the Netherlands). The system was equipped with an electrochemical detector (Coulochem ESA, model 5100 A, Interscience, Breda, the Netherlands) and an analytical cell (ESA, model 5010). Interscience, Breda, the Netherlands) which consisted of two cell compartments.
The separations were performed using a Hypersil C 18 column (125 mm×4.6 mm i.d., […] particle size) and a mobile phase of phosphate buffer (50 mM KH2 PO4 /H3 PO4, pH 2.7) and acetonitrile (65:35, v/v). Before use, the eluent was vacuum filtrated over a […] filter. The flow rate was 0.7 ml/min.
Sample Collection and Preparation
(§1) To a healthy volunteer (82 kg), who fasted overnight, 1 gram of R-lipoic acid (4 capsules of 250 mg) was administered orally. At several time points (0-5 hr), blood samples of 3 ml were taken from a venous cannula into Li-heparine containing tubes. The samples were centrifuged (2000 g at 4° C. for 5 min) and the plasma was analyzed immediately. The proteins in the plasma were precipitated by adding 1 ml ethanol and […] 85% (g/g) H3 PO4 to […] plasma. Thereafter, the sample was thoroughly mixed on a vortex mixer and placed on ice. After 15 min it was centrifuged at 2000 g for 10 min at 4° C. […] of the supernatant were brought onto the column. Quality control samples were prepared by spiking plasma with a small volume (less than 1%) of an ethanol solution of the compound.
For the elucidation of the structure of the metabolites, the plasma obtained at 69, 92 and 119 min was pooled (approximate total volume was 3 ml). The pooled plasma was acidified with 3 ml 3 M sulfuric acid. Thereafter, the sample was extracted twice with 12 ml HPLC-grade ethylacetate (Baker Phillipsburg, N.J.). After evaporation of the ethylacetate the compounds were methylated with diazomethane for 30 min at room temperature. Subsequently, the compounds were dissolved in […] ethanol. A volume of […] was injected on a GC/MS system using a split injection ratio of 1/15. The instrument used was a HP 5890 GC equipped with a HP 5970 mass selective detector. Gas chromatography was performed on a CPSil 5 CB WCOT capillary column (25 m, […] i.d., […]; Chrompack, Middelburg, the Netherlands). While the temperature of the injector and transfer line were kept at 250° C., two oven temperature programs were required to obtain satisfactory separation of all lipoic acid related components from endogenous plasma components. The oven temperature was programmed from 60° C. (kept for 2 min) to 180° C. (at 20° C./min) with an isothermal period (10 min) and subsequent temperature increase to 288° C. (at 20° C./min) and another isothermal period; this produced satisfactory results for all components except bisnorlipoic acid. Bisnorlipoic acid could be separated from background components by using a program from 60° C. (kept for 2 min) to 160° C. (at 20° C./min with an isothermal period (15 min) and subsequent raise to 288° C. (at 20° C./min). Detection was performed by using 70 eV impact ionization.
The Pharmocokinetic Analysis
A volunteer was given 1 gram R-lipoic acid. […] Somewhat later, an unknown metabolite was observed which eluted at 5.5 min (peak nr. 6 in FIG. 2). Thereafter, a second unknown appeared which eluted at 4.7 min (peak nr. 5 in FIG. 2). Subsequently, ca. 45 after administration, bisnorlipoic acid could be detected (peak nr. 4 in FIG. 2). […] The time course of the plasma concentrations of lipoic acid, the two unknown metabolites and bisnorlipoic acid are shown in FIG. 3. Around 45 min a maximum in the lipoic acid concentration is reached. At 75 min a diet containing a high amount of fat was consumed. […]

[2] = assay type: in vitro ADME
Procedure: as §1
The stability of lipoic acid in plasma was evaluated by spiking plasma at 0.5 mg/ml and storing it at -25° C. […]
The stability of dihydrolipoic acid in plasma was also evaluated by spiking plasma at 0.5 mg/ml and storing it at -25° C. After approximately 20 hours, ca. 6% of the theoretical value was detected. […] Lipoic acid was also detected in the quality control samples of dihydrolipoic acid used for determination of the accuracy and precision. […] This means that the sample is immediately analyzed after blood sampling, and the pH is reduced to increase the stability of thiols. […]

human erythrocytes = settings: cited from earlier work
human cells in culture = settings: cited from earlier work
[3] = Stability in aqueous solutions; assay type: physicochemical; settings: compared to plasma

time of maximum plasma concentration ([1]; human, in vivo, po): 119 min
Compound: O=C(O)CC(=O)CCC1CCSS1 (centres unmarked) [3-ketolipoic acid]
order of reaching maximal plasma level ([1]; human, in vivo, po): reaches its maximum plasma level just before bisnorlipoic acid reaches its maximum

time of first detection in plasma ([1]; human, in vivo, po): ca. 45
time of maximum plasma concentration ([1]; human, in vivo, po): 189 min
Compound: O=C(O)CCC1CCSS1 (centres unmarked) [bisnorlipoic acid]

stability in aqueous solutions [3]: more stable
Compound: O=C(O)CCCC[C@@H](S)CCS (racemic) [dihydrolipoic acid]

The remaining lines, values behind:

Compound: O=C(O)CC(O)CCC1CCSS1 (centres unmarked) [3-hydroxylipoic acid]
order of reaching maximal plasma level ([1]; human, in vivo, po): reaches its maximal level before the compound from peak 6 reaches maximum

Compound: O=C(O)CCCC[C@@H]1CCSS1 (racemic) [lipoic acid, 1,2-dithiolane-3-pentanoic acid]
stability in plasma [2]: stable in plasma for at least one week
reduction of lipoic acid into dihydrolipoic acid (human erythrocytes): reduction of lipoic acid was shown
reduction of lipoic acid into dihydrolipoic acid (human cells in culture): reduction of lipoic acid was shown
free plasma concentration before administration ([1]; human, in vivo): < 7.8 ng/mL
Cmax ([1]; human, in vivo, po): 1150 ng/mL
half life ([1]; human, in vivo, po): 0.933 h
time of first appearance in plasma ([1]; human, in vivo, po): 30 min
half-life ([1]; human, in vivo, po, half life): ~1 h
Tmax ([1]; human, in vivo, po, time of (first) maximum in plasma concentration): ~0.75 h
Tmax ([1]; human, in vivo, po, time of maximum plasma concentration): 1.53 h
elimination kinetics ([1]; oral 1 gram R-lipoic acid): first order kinetics
presence in plasma after three hours ([1]; oral 1 gram R-lipoic acid): essentially absent from the plasma
time of first appearance in plasma ([1]; oral 1 gram R-lipoic acid): Thirty minutes

Compound: O=C(O)C1CCSS1 (centres unmarked) [tetranorlipoic acid]
detection in plasma after administration ([1]; human, in vivo, po): Neither dihydrolipoic acid nor tetranorlipoic acid were found
